# Several values for one entry are separate records, joined by “and”; a condition that tells them apart may be missing. Equal values may be shown once. Read-outs that look alike come from different tables or passages of the source.
# Legend:
# [1] = Ferric reducing antioxidant potential (FRAP) assay; settings: 1 mg/mL
# Procedure: FRAP assay was used to assess the […] of the extracts and phytocompounds with slight modification in a previously reported method. For the assay, the extract (1 mg/mL) was incubated with 200 μL of FRAP reagent, and the reduction of ferric tripyridyltriazine was monitored at 593 nm (Multimode reader, Synergy-H1 BioTek, Agilent, USA). Ascorbic acid (2 μg/mL) was used as a positive control. FRAP values of the extracts and phytocompounds were calculated from the standard curve of FeSO4 (15–250 μM) and expressed as μM Fe^2+/g.
# [2] = biological target: T1, Acetylcholinesterase (Electrophorus electricus, Type VI-S) (Electrophorus electricus, UniProt O42275); experiment: biochemical; settings: for Type of Inhibition of AChE: Lineweaver–Burk plot, 100 and 200 μg/mL; for Vmax of AChE in presence of inhibitor: no inhibitor 2.975; for IC50: read-out: AChE IC50 (converted)
# T1 construct: purchased Sigma-Aldrich
# T1 sequence (O42275 24-633): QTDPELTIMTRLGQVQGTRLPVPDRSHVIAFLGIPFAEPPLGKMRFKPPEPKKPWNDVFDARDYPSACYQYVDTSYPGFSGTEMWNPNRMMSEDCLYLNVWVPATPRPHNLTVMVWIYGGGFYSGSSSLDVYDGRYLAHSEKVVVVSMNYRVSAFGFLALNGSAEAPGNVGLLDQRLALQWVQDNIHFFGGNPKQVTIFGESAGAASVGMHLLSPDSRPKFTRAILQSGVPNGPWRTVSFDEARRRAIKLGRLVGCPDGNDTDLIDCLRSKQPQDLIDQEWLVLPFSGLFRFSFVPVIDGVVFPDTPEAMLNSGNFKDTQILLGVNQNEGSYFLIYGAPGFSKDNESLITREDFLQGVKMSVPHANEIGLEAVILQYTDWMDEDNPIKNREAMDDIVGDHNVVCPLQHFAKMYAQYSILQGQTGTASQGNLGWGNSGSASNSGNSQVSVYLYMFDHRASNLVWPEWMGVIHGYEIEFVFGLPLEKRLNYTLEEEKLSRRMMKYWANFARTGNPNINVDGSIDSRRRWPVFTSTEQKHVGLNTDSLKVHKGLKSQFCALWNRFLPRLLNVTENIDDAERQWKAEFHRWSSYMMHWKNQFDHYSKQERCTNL
# Procedure: The AChE activity was examined by slight modifications [23] in Ellman’s method [76]. The extracts and phytocompounds were incubated for 15 min with AChE and 10 mM ATCC at 37 °C. The reaction was stopped by DTNB (15 mM), and the absorbance was measured at 412 nm (Multi-mode plate reader, Synergy-H1 BioTek, Agilent, USA). […] The percent inhibition was calculated as:Percent Inhibition (I%) = [(Ao − Ac) − (Bi − Bc)]/(Ao − Ac) × 100 where Ao is the absorbance without inhibitor; Ac is the negative control without inhibitor; Bi is the absorbance with inhibitor; and Bc is the negative control with inhibitor. The IC50 values were calculated using GraphPad Prism 10. Lineweaver–Burk plot was used to prepare the inhibition curves (with and without extract/phytocompound) using GraphPad Prism 10. The kinetic parameters were calculated from a non-linear fit (Michaelis–Menten equation) in GraphPad Prism 10.
# Statistical analysis was established by a one-way ANOVA followed by Dunnett’s post hoc test. Data are registered as the mean ± SEM of three sets of experiments. […] The IC50 values were determined using non-linear regression. The Vmax and Km were calculated from a Michaelis–Menten plot drawn using a non-linear plot (GraphPad Prism 10). Lineweaver–Burk plots were drawn using linear regression analysis (GraphPad Prism 10). The Ki values were calculated from the formula IC50 = Ki (1 + [S]/Km).
# [3] = biological target: T2, Aβ1–42 (Homo sapiens, UniProt P05067); experiment: Anti-Aβ1–42 oligomerization, multimeric detection system (MDS); type: biochemical; settings: vs negative control (Buffer + Aβ)
# T2 construct: Aβ1–42 for MDS (GenicBio Inc., Shanghai, China); purchased GenicBio Inc
# T2 sequence (P05067 672-713): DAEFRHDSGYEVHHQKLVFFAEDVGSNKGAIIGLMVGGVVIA
# Procedure: The anti-Aβ1–42 oligomerization and fibrilization activity of the extracts/bioactives were measured by Multiple Detection System (MDS) and ThT assay, respectively. Briefly, the extracts and phytocompounds were incubated with Aβ1–42 at RT for different time points (0 h, 2 h, and 4 h). The samples were incubated on an anti-β-amyloid pre-coated plate for 1 h at RT. An HRP-conjugated W0–2 monoclonal antibody was added, and the plate was kept at RT for 30 min. Later, TMB was added, and the plate was incubated for 15 min at RT. The absorbance was read at 450 nm using a microplate reader (Victor3, PerkinElmer, Shelton, CT, USA)
# [4] = biological target: T2, Aβ1–42; experiment: Anti-Aβ1–42 fibrilization, ThT assay; type: biochemical; settings: samples 500 μg/mL; 37 °C 24 h
# Procedure: The anti-Aβ1–42 fibrilization activity of the extracts/bioactives was monitored using a ThT assay. The samples were incubated in the presence/absence of Aβ1–42 at 37 °C for 24 h. The samples were incubated with 100 μM ThT at 37 °C for 15 min. The fluorescence was monitored at Ex 450 nm/Ems 490 nm (Synergy-H1 BioTek, Agilent, Santa Clara, CA, USA). For the control, phenol red (50 μM) was used. The Aβ1–42 aggregation inhibition was calculated as follows:Percent Inhibition (%) = [(1 − Fi/Fc) × 100] where Fi and Fc are the fluorescence intensity with and without the inhibitors, respectively.
# [5] = system: SH-SY5Y neuroblastoma cell line; experiment: Cell viability / cytotoxicity assay (WST-8); type: cell-based, Human
# Procedure: (§1) Human neuroblastoma SH-SY5Y cells (ATCC CRL-2266, Manassas, VA, USA) were maintained in Dulbecco’s modified Eagle’s medium (DMEM, Gibco) supplemented with 10% fetal bovine serum (FBS), 1% kanamycin, and 1% penicillin (Thermo Fisher Scientific, Waltham, MA, USA) at 37 °C with 5% CO2, and a 95% humidified atmosphere in the incubator. The experiments were executed at 80–90% cell confluency.
# The cells were seeded (1 × 10^4 cells/well) in 96-well sterile plates and pre-treated with various extract concentrations (1, 10, 30 µg/mL) for 24 h. The extracts and phytocompounds were removed and incubated for 2 h with 10% WST-8 reagent (Roche, Grenzach-Wyhlen, Germany) as described previously. The absorbance was determined at 450 nm in a multi-plate reader (Synergy-H1 BioTek, Agilent, USA). The percent cytotoxicity was calculated as:Cytotoxicity % = (Ac − At)/(Ac) × 100 where Ac = absorbance of the control cells, At = absorbance of the treated cells.
# The plot of percent cytotoxicity versus sample concentration was used to calculate the extract concentration that killed 50% of the cells (IC50).
# [6] = system: H2O2-induced neuroblastoma SH-SY5Y cells; experiment: Neuroprotection assay against H2O2-induced oxidative stress (WST-8); type: cell-based, Human; settings: Homo sapiens, SH-SY5Y; 30 µg/mL; 12 h pre-treatment, 1 h H2O2 100 µM; read-out: % cell viability, H2O2-induced SH-SY5Y
# Procedure: as §1
# The neuroprotective effect of extracts and phytocompounds on H2O2-induced oxidative stress in SH-SY5Y by a previously described method. The cells (1 × 10^4 cells/well) were seeded in a 96-well sterile plate. After stabilization, the cells were pre-treated with the extracts and phytocompounds for 24 h. The extracts and phytocompounds were removed and treated with H2O2 (100 μM) for 6 h. A solvent control, H2O2 alone, and extract alone treatments were also included. After incubation, the % cell viability was measured using WST-8 reagent in triplicate experiments.
# [7] = system: H2O2-induced ROS production in SH-SY5Y cells; experiment: Intracellular ROS measurement (H2DCFDA); type: cell-based, Human; settings: 12 h pre-treatment, H2O2 100 µM 2 h, H2O2 alone 156.96 ± 5.07%
# Procedure: as §1
# The cells (1 × 10^4 cells/well) were seeded in a 96-well sterile plate, after which they were pre-treated with the extract for 12 h. […] The fluorescence intensity (Ex 495 nm, Ems 520 nm) was measured by a microplate reader (Synergy-H1 BioTek, Agilent, USA). The ROS was calculated as a percentage of the untreated control cells (100%) in triplicate measurements.
# [8] = system: SH-SY5Y cells lysate; experiment: Malondialdehyde (MDA) in cell lysate (TBA:TCA); type: cell-based, Human; settings: 24 h pre-treatment, 6 h H2O2 100 μM
# Procedure: as §1
# The cells (5 × 10^4 cells/well) were seeded in a 6-well sterile plate and incubated for 18–24 h. After stabilization, cells were pre-treated with the extracts and phytocompounds for 24 h before 6 h incubation with H2O2 (100 μM). The culture media was removed, and the cells were washed with cold PBS (1X). The cells were placed on ice and incubated with pre-chilled RIPA buffer for 10 min. Transfer the lysate in microfuge tubes and centrifuge (Labogene 1730R, BMS, Paju-si, Republic of Korea) for 10 min at 20,000× g, 4 °C. The supernatant was collected and stored at −80 °C.
# MDA levels were measured using TBA: TCA reagent as described previously. In the reaction, MDA reacts with two molecules of thiobarbituric acid (TBA) to give a pink pigment that absorbs at 532 nm. The standard curve of MDA (1–100 μM) was used to calculate lipid peroxidation in the lysate.
# [9] = system: AChE (bovine erythrocyte); parameters: method as in doi:10.1021/jf960398b; settings: cited from earlier work
# [10] = system: rodent models; settings: cited from earlier work
smiles,measurement,setting,value
"C=C(C)[C@H]1CC=C(C)C(=O)C1 [carvone, D-carvone]",FRAP value,[1],43.25 ± 2.50 µM Fe^2+/g
same,Ki,[2]; Ki,1.8 mM
same,Ki,"[2]; Ki (inhibitor constant), AChE",1.8 mM and 1.79 mM
same,Type of Inhibition of AChE,[2],competitive inhibition
same,Type of Inhibition of AChE,[2]; listed as Carvone,Competitive
same,Vmax of AChE in presence of inhibitor,[2]; inhibitor 100 μg/mL,2.900 µmol/min/mg
same,Vmax of AChE in presence of inhibitor,[2]; inhibitor 200 μg/mL,3.141 µmol/min/mg
same,IC50,[2]; mean of three experiments ± SEM,1.84 mM
same,IC50,[2]; molar equivalent of the μg/mL value,1.83 mM
same,Aβ oligomerization reduction (relative amount of Aβ oligomers),[3]; 2 h incubation,statistically significant
same,Aβ oligomerization reduction (relative amount of Aβ oligomers),[3]; 4 h incubation,statistically significant
same,Aβ fibrilization inhibition (ThT),[4],42.37 ± 0.76%
same,Cytotoxicity (cell viability) in SH-SY5Y,[5],No significant difference
same,viability at 30 µg/mL,[6],70.5 ± 1.67%
same,ROS level (% of untreated cells),[7]; 1 µg/mL,122.82 ± 6.63%
same,ROS level (% of untreated cells),[7]; 10 µg/mL,110.70 ± 4.90%
same,ROS level (% of untreated cells),[7]; 30 µg/mL,107.11 ± 8.34%
same,MDA level,[8]; 0.1 µg/mL,1.71 µM
same,MDA level,[8]; 1 and 10 µg/mL,~ 1.33 µM
same,AChE IC50,[9],277.9 µg/mL
same,IC50,[9],1.85 mM
same,type of AChE inhibition,[9],competitive inhibitor
same,LD50,[10],1640 mg/kg

# Source: PMC11241255 (International Journal of Molecular Sciences, 2024)
